PubChem BioAssay (NCI)
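Tested at 5 concentrations; 48 h exposure; 96-well plates; endpoints linearly interpolated, else capped at highest concentration. TGI: concentration producing complete growth inhibition.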

Columns and labels:
Test in all cases: inhibition of tumour cell growth, NCI panel, 48 h
NCI-H226 lung = system: NCI-H226 lung
MDA-MB-231 breast = system: MDA-MB-231 breast
UACC-257 melanoma = system: UACC-257 melanoma
SNB-75 CNS = system: SNB-75 CNS
SF-268 CNS = system: SF-268 CNS
OVCAR-4 ovarian = system: OVCAR-4 ovarian
UO-31 renal = system: UO-31 renal
MCF7 breast = system: MCF7 breast
DU-145 prostate = system: DU-145 prostate
SK-OV-3 ovarian = system: SK-OV-3 ovarian

Compound	TGI (NCI-H226 lung) [µM]	TGI (MDA-MB-231 breast) [µM]	TGI (UACC-257 melanoma) [µM]	TGI (SNB-75 CNS) [µM]	TGI (SF-268 CNS) [µM]	TGI (OVCAR-4 ovarian) [µM]	TGI (UO-31 renal) [µM]	TGI (MCF7 breast) [µM]	TGI (DU-145 prostate) [µM]	TGI (SK-OV-3 ovarian) [µM]
C/C(=C\CSCC(N)C(=O)O)CC/C=C(\C)CNc1ccccc1 (stereo not given)	> 100	> 100	> 100	> 100	> 100	> 100	> 100	> 100	> 100	> 100
CC(C)=CCC[C@@H](C)C1=C(Nc2ccccc2F)C(O)=C(C)C(=O)C1=O	24	> 100	> 100	> 100	> 100	> 100	25.2	81.6	> 100	73.3
CC(C)=CCc1c(O)cc2oc(-c3ccc(O)cc3O)cc(=O)c2c1O	> 100	67.2	> 83.8	69.1	> 100	50.8	93.9	> 65.6	> 84.8	> 100
CC(C)(C)/C(O)=C\c1nc2cc(F)c(F)cc2[nH]c1=O	> 100	71.7	> 100	> 100	> 100	> 100	> 100	> 100	57	> 100
CN(C)/N=N/c1nc2c(c(=O)n(C)c(=O)n2C)n1CC1CO1 (stereo not given)	38.3	68.1	43.9	43.6	33.6	29.4	31.3	26.1	37.5	61.7
Nc1c(N2CCOCC2)c(=O)nc2[nH]/c(=C\c3ccccc3O)c(=O)n12	> 100	> 100	> 100	> 100	> 100	> 100	> 100	> 100	> 100	> 100
CC(C)=C/C(CC(O)(C(F)(F)F)C(F)(F)F)=N\O	> 100	> 100	> 100	> 100	> 100	> 100	> 100	> 100	> 100	> 100
Cc1cccc2c1CC(Cc1ccccc1C(=O)O)C2=O (stereo not given)	> 100	> 100	> 100	> 100	> 100	> 100	> 100	> 100	> 100	> 100
O=c1c2cc([N+](=O)[O-])ccc2oc2nc3n(c(=O)c12)CCCS3	> 100	> 100	> 100	> 100	> 100	> 100	> 100	> 100	> 100	> 100
CNC(=S)N1CCN(C(C)=O)C1=S	62	16	> 100	72.9	> 100	32.1	> 100	> 100	> 100	> 100
C=C1[C@@H]2CCC3[C@]4(C)C(CC[C@@]5(C)C(=O)O[C@H](O)[C@@H]45)[C@H](O)[C@]3(C2)[C@H]1OC1OC(CO)C(O)C(O)C1O (stereo not given in full)	> 50	> 50	> 50	> 50	> 50	> 50	> 50	> 50	> 50	> 50
CC1=NN2C(=N)/C(=C/c3ccc(F)cc3)C(=O)N=C2S1	> 100	> 100	> 100	> 100	> 100	> 100	> 100	> 100	> 100	> 100
COc1ccc(C(=O)/C=C/SC(=NC#N)SC)cc1	43.5	33.2	40.5	89.2	70.3	> 100	37.4	38.2	53.5	47.5
CO[P@@]1(=O)O[C@@H](c2ccccc2)[C@H](O)[C@]1(O)c1ccccc1	> 100	> 100	> 100	> 100	> 100	> 100	> 100	> 100	> 100	> 100
C[C@H]1[C@H](C)CC[C@]2(C(=O)OC3OC(CO)C(O)C(O)C3O)CC[C@]3(C)C(=CC[C@@H]4[C@@]5(C)C[C@@H](O)[C@@H]6OC(=O)c7cc(O)c(O)c(O)c7-c7c(cc(O)c(O)c7O)C(=O)OC[C@@]6(CO)[C@@H]5CC[C@]43C)[C@H]12 (stereo not given in full)	> 100	37	> 100	> 100	> 100	75.3	> 100	36.4	> 100	> 100
CC1=C(C)SC(=C2Sc3c(n(C)c(=O)n(C)c3=O)S2)S1	48.5	75.3	> 100	52.3	> 100	58.3	> 100	> 100	> 100	33.5
NC(=O)C1CCN(Cc2c(Cl)c(Cl)c(CN3CCC(C(N)=O)CC3)c(Cl)c2Cl)CC1	> 100	96	> 100	63.6	> 100	> 100	> 100	> 100	> 100	46.5
CSc1nc(Cl)c2c(n1)Sc1nc3ccccc3n1C2O (stereo not given)	95	> 100	> 100	> 82.2	55	> 100	24.3	> 100	41.9	> 100
O=c1c2c3c(sc2nc2n1N=C(c1ccc(Br)cc1)CS2)CCCC3	> 100	> 100	> 100	> 100	> 100	> 100	> 100	> 100	> 100	> 100
NC(=O)NN=C1Cc2ccccc2C1	> 100	> 100	> 100	> 100	> 100	> 100	> 100	> 100	> 100	> 100
CN1c2ccccc2C2=C(c3ccccc3)CC[C@@H](C(=O)N3C4CC5CC[C@@]4(CS3(=O)=O)C5(C)C)[C@@H]21 (stereo not given in full)	> 100	> 100	> 100	> 100	> 100	> 100	> 100	> 100	> 100	> 100
CC(=N/NC(=S)N(C)C)/C(=N\NC(=S)N(C)C)c1ccccc1	3.13	> 23.8	4.19	4.62	4.84	3.74	6.21	> 25.6	10.6	3.53
CC[C@H](NC(=O)OC(C)(C)C)C(=O)NCP(=O)(OCc1ccc([N+](=O)[O-])cc1)OCc1ccc([N+](=O)[O-])cc1	> 100	> 100	26.9	> 100	> 100	> 100	80.2	> 100	> 100	86
O=C([C@H](O)[C@@H](O)c1cccc(Cl)c1)C12CC3CC(CC(C3)C1)C2	12.3	5.44	4.8	3.7	4.04	7.49	3.83	2.77	5.08	22.8
CC/C=N\N1C(N)=C(C#N)C(C#N)(C#N)C1CC (stereo not given)	> 100	> 100	> 100	> 100	> 100	> 100	> 100	> 100	> 100	> 100
CC1(C)C=C(/C=C2/N(S(=O)(=O)C(F)(F)F)C(/C=C3/N(S(=O)(=O)C(F)(F)F)C(C)(C#N)CC3(C)C)=CC2(C)C)N=C1/C=C1/CC(C)(C)C(=O)N1 (stereo not given)	> 100	> 100	> 100	> 100	36	> 100	> 100	> 100	> 100	> 100
CCC1(CC)C(=O)N(C(=O)c2cc(OC)c(OC)c(OC)c2)N(C(=O)c2cc(OC)c(OC)c(OC)c2)C1=O	> 50	> 50	> 50	> 50	> 50	> 50	> 50	> 50	> 50	> 50
COC1(CC[C@H](C)COC2OC(CO)C(O)C(O)C2O)O[C@H]2C[C@H]3[C@@H]4CC=C5C[C@@H](OC6OC(CO)C(OC7OC(C)C(O)C(O)C7O)C(O)C6OC6OC(C)C(O)C(O)C6O)CC[C@]5(C)[C@H]4CC[C@]3(C)[C@H]2[C@@H]1C (stereo not given in full)	31.7	21.1	28.7	3.8	10.3	18	6.79	39.8	5.77	7.99
